Publication PMC10340532, “MCAK Inhibitors Induce Aneuploidy in Triple-Negative Breast Cancer Models” (Cancers, 2023)

Molecular target: T1, MCAK (Homo sapiens, UniProt Q99661)
T1 construct: gene KIF2C
T1 sequence (Q99661 2-725): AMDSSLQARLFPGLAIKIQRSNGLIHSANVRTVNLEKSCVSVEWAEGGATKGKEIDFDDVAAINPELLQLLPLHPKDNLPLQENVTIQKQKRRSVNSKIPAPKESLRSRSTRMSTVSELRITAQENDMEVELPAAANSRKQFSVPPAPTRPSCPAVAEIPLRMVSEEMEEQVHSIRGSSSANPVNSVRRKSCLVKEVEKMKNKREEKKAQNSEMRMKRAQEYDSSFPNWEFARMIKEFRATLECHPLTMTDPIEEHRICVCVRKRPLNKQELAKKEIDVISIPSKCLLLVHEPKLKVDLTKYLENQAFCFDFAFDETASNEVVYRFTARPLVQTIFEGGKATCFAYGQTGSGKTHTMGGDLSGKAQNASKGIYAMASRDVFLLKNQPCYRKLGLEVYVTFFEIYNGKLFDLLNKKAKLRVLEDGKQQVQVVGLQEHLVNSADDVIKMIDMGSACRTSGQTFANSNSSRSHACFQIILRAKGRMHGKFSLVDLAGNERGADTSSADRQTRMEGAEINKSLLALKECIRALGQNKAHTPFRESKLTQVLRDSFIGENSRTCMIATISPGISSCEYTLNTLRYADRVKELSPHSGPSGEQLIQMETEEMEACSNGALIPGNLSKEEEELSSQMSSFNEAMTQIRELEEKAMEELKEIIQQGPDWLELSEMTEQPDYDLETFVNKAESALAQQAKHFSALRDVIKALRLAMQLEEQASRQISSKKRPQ
Test: sedimentation-based microtubule depolymerization assay with purified FMCAK; FRET conformation screen, FCP counter screen
Assay type: biochemical

sedimentation-based microtubule depolymerization assay with purified FMCAK; FRET: 5 µM
SMILES: CC(C)c1noc(C2CCCN2C(=O)c2cc(=O)c3ccccc3o2)n1 (stereo not shown) [H9, 2042 H9]
